Assay [1] concerns Acinetobacter baumannii 7789 (V19). The assay can be described thus: Minimum inhibitory concentration (MIC) assay, planktonic culture, broth dilution. The assay is classed as cell-based. More on the design: key: C = confluent growth, i.e. no MIC could be determined at any concentration tested. The note with it: A. baumannii, planktonic culture in Mueller-Hinton broth; mean of three replicate tests. How it is done:
(§1) The effects of five epoxytiglienones (Compounds 1, 2, 3, 4 and 6) and two comparator comparator compounds (epoxytiglienones having longer carbon chains at the C12 position) on six human pathogenic bacteria (two Gram-positive and four Gram-negative species) were measured in conventional planktonic culture systems. A minimum inhibitory concentrations (MIC) assay (the standard assay employed to define and quantify antibiotic activity) was performed to determine antibacterial activity for each epoxytiglienone against each bacterial strain.
(§2) The Gram-positive bacteria used in this study were methicillin resistant Staphylococcus aureus (MRSA) 1004A and Streptococcus pyogenes. The Gram-negative bacteria used in this study were Pseudomonas aeruginosa PAO1, Escherichia coli IR57 (V7), Klebsiella pneumoniae, and Acinetobacter baumannii 7789 (V19). MIC assays were performed on planktonic cultures of each bacteria grown in Mueller-Hinton broth using the standard broth dilution method described by Jorgensen et al. (1999) using epoxytiglienones dissolved in ethanol.
A general note: In broth dilution the organism is exposed to a series of concentrations in liquid medium.

Assay [2] has as its system Escherichia coli IR57 (V7). The description is as above. The assay is classed as cell-based. The note with it: E. coli, planktonic culture in Mueller-Hinton broth; mean of three replicate tests. More on the design: key: C = confluent growth, i.e. no MIC could be determined at any concentration tested. How it is done:
as §1, §2

For assay [3], the system named is Klebsiella pneumoniae. The description is as above. The note with it: K. pneumoniae, planktonic culture in Mueller-Hinton broth; mean of three replicate tests. More on the design: key: C = confluent growth, i.e. no MIC could be determined at any concentration tested. The assay is classed as cell-based. How it is done: as §1, §2
Assay [4] has as its system Pseudomonas aeruginosa PAO1. Described as above. As to conditions: P. aeruginosa, planktonic culture in Mueller-Hinton broth; mean of three replicate tests. The assay is classed as cell-based. Details: key: C = confluent growth, i.e. no MIC could be determined at any concentration tested. How it is done:
as §1, §2

Assay [5] deals with Streptococcus pyogenes. The assay is described as above. The assay is classed as cell-based. More on the design: key: C = confluent growth, i.e. no MIC could be determined at any concentration tested. As to conditions: S. pyogenes, planktonic culture in Mueller-Hinton broth; mean of three replicate tests. How it is done:
as §1, §2

The subject of assay [6] is methicillin resistant Staphylococcus aureus (MRSA) 1004A. The description is as above. The assay is classed as cell-based. More on the design: key: C = confluent growth, i.e. no MIC could be determined at any concentration tested. The note with it: S. aureus, planktonic culture in Mueller-Hinton broth; mean of three replicate tests. How it is done: as §1, §2
Assay [7] deals with E. coli IR57 biofilm. Briefly: Disruption of established in vitro biofilm, CLSM with COMSTAT image analysis. The note with it: E. coli IR57 24 h biofilm, 256 μg/mL, further 24 h; vs untreated and ethanol blank controls. The assay is classed as cell-based, Escherichia coli. How it is done:
The effects of administration of Compounds 1, 4 and 6 and comparator compound CC-1 on disruption of established in vitro biofilms of Escherichia coli (E. coli) was investigated using methods described in Powell et al. (2018).
(§3) Biofilms of E. coli IR57 were grown on 96-well glass-bottomed plates in Mueller-Hinton (MH) broth for 24 h, before 50% of the supernatant was replaced with fresh MH broth with or without the epoxytiglienone compound added to a final concentration of 256 μg/mL (vehicle is ethanol). An ethanol equivalent blank was used as a further control treatment. The plates were then incubated for a further 24 h at 37° C.
(§4) Confocal laser scanning microscopy (CLSM) was then used to image the biofilms, following staining with Live/Dead® Baclight stain with phosphate buffered saline (PBS) added to each well before imaging with z-stack CLSM. The resultant images were analysed by COMSTAT software to produce measurements of (i) biofilm biomass volume or bio-volume (μm^3/μm^2) and (ii) DEAD/LIVE bacterial ratio.

Assay [8] relates to E. coli IR57 biofilm. The assay can be described thus: Multiple particle tracking (MPT) of 200 nm FluoSpheres in established biofilm. The note with it: for Diffusion coefficient (Deff) ± standard deviation: 200 nm negatively-charged carboxylate-modified FluoSpheres in E. coli IR57 biofilms, 256 μg/mL, 24 h treatment; for mean squared displacement (MSD) of FluoSphere particles / biofilm creep compliance: E. coli IR57 biofilm, vs untreated and ethanol blank controls; for mean squared displacement (MSD) of FluoSphere particles: 200 nm FluoSpheres; for biofilm creep compliance: derived from MSD vs lag time. The assay is classed as cell-based, Escherichia coli. How it is done:
The effect of three epoxytiglienones (Compounds 1, 4 and 6) on the assembly and permeability of established biofilms of E. coli was assessed using multiple particle tracking (MPT). MPT is a recently described technique, allowing simultaneous tracking of micron-size particles through biofilms using microscopy, from which the diffusion-based parameters of embedded particles within the extracellular polymeric matrix (EPS) of the biofilm can be determined (Cao et al. 2016). MPT measurements also allows for calculation of micro-rheological properties of the biofilm structure following treatment with test compounds.
E. coli biofilms were established and epoxytiglienone and control treatments applied as described in Example 2 above. Twenty-four hours after application of the treatments, the biofilms were stained with SYTO9® and 0.0025% of negatively-charged, carboxylate-modified FluoSpheres® (200 nm) added onto the biofilms and incubated for a further 2 hours. FluoSphere® particle movements within the biofilms were then captured on video using epifluorescence microscopy with a high frame-rate camera (33 ms). Particle trajectories were tracked using ImageJ softwaren (Mosaic) before calculation of three parameters of the 200 nm FluoSphere® particles: (i) ensemble diffusion coefficient (Deff), (ii) ensemble mean squared displacement (MSD) and (iii) creep compliance (a measure of resistance to mechanical deformation derived from the MSD vs lag time). Each treatment was replicated three times.

Assay [9] has as its system A. baumannii 7789 biofilm. Briefly: Disruption of established in vitro biofilm, CLSM with COMSTAT image analysis. The assay is classed as cell-based, Acinetobacter baumannii. The note with it: 256 μg/mL; for DEAD/LIVE bacterial ratio: vs untreated and ethanol blank controls; for biofilm bio-volume (COMSTAT): vs untreated and ethanol blank controls (p<0.05). How it is done: as §3, §4
(§5) The effects of the epoxytiglienones (Compounds 1, 4, 6 and the comparator compound CC-1) on disruption of established in vitro biofilms were further investigated with two other species of Gram-negative bacteria (Pseudomonas aeruginosa PA01 and Acinetobacter baumannii 7789) using methods described in Example 2 above. Cell permeabilisation following Compound 1, 4 and 6 treatment was also determined using SYTOX™ Green Nucleic Acid Stain with untreated control and positive control of 70% isopropanol.

Assay [10] relates to P. aeruginosa PAO1 biofilm. Described as above. As to conditions: 256 μg/mL, vs untreated and ethanol blank controls. The assay is classed as cell-based, Pseudomonas aeruginosa. How it is done:
as §3, §4, §5

In brackets after ≈: the same amount, converted by molar mass.

With `CCCCCC(=O)OC1C(C)C2(O)C(C3OC3(CO)C(O)C3(O)C(=O)C(C)=CC32)C2C(C)(C)C12OC(=O)C(C)CC` (centres unmarked) [Compound 3, 12-hexanoyl-13-(2-methylbutanoyl)-6,7-epoxy-4,5,9,12,13,20-hexahydroxy-1-tiglien-3-one], the Minimum inhibitory concentrations entry in [1] was “C”; in assay [2], “C”; in assay [3], “C”; in [4], “C”; in assay [5], 128 µg/mL (≈ 221 µM); in [6], 256 µg/mL (≈ 442 µM).

For `C/C=C(\C)C(=O)O[C@@H]1[C@@H](C)[C@@]2(O)[C@H]([C@@H]3C(C)(C)[C@]13OC(=O)[C@@H](C)CC)[C@@H]1O[C@]1(CO)[C@@H](O)[C@]1(O)C(=O)C(C)=C[C@H]12` [Compound 1, 12-tigloyl-13-(2-methylbutanoyl)-6,7-epoxy-4,5,9,12,13,20-hexahydroxy-1-tiglien-3-one], the Minimum inhibitory concentrations entry is “C” in [1]; “C” in assay [2]; “C” in assay [3]; “C” in assay [4]; 128 µg/mL (≈ 227 µM) in assay [5]; 256 µg/mL (≈ 455 µM) in assay [6]. Further, the “biofilm bio-volume (COMSTAT)” value in [7] is recorded as “Significant decreases”; in assay [9], “significant reductions”. Moreover, the “distribution and density of bacteria in the biofilm (CLSM)” value (shortened to “distribution and density of bacteria”) in [7] is reported as “significant changes”. Moreover, the “Diffusion coefficient (Deff) ± standard deviation” value in assay [8] came to 0.6018 ± 0.0901 cm^2 · s^−1 × 10^−9. The “mean squared displacement (MSD) of FluoSphere particles” value in assay [8] is reported as “substantially higher”. Also, the biofilm creep compliance result in assay [8] is reported as “increased”. For the same compound, the DEAD/LIVE bacterial ratio entry in assay [9] and in assay [10] was “no significant differences” each time.

`CCC(C)C(=O)OC1C(C)C2(O)C(C3OC3(CO)C(O)C3(O)C(=O)C(C)=CC32)C2C(C)(C)C12OC(=O)C(C)CC` (centres unmarked) [Compound 2, 12,13-di-(2-methylbutanoyl)-6,7-epoxy-4,5,9,12,13,20-hexahydroxy-1-tiglien-3-one]: the Minimum inhibitory concentrations entry in [1] is “C”; in [2] it was “C”; in [3], “C”; in assay [4] it was “C”; in assay [5] it was 128 µg/mL (≈ 227 µM); in [6], 256 µg/mL (≈ 453 µM).

Turning to `CCCCCC=CC=CC(=O)O[C@@H]1C(C)[C@]2(O)C(C3OC3(CO)[C@H](O)[C@@]3(O)C(=O)C(C)=CC23)C2C(C)(C)[C@]21OC(=O)C(C)CC` (stereo partly drawn) [CC-2, 12R-(2,4-decadienoyl)-13R-(2-methylbutanoyl)-6,7-epoxy-4R,5R,9S,12R,13R,20-hexahydroxy-1-tiglien-3-one, reference compound], the Minimum inhibitory concentrations result in [1] was “C”; in assay [2], “C”; in assay [3], “C”; in assay [4] it was “C”; in [5] it was 8 µg/mL (≈ 12.7 µM); in assay [6], 16 µg/mL (≈ 25.4 µM).

`CCCCCC=CC=CC(=O)OC1C(C)C2(O)C(C3OC3(CO)C(O)C3(O)C(=O)C(C)=CC32)C2C(C)(C)C12OC(=O)C(C)CC` (centres unmarked) [CC-1, 12-(2,4-decadienoyl)-13-(2-methylbutanoyl)-6,7-epoxy-4,5,9,12,13,20-hexahydroxy-1-tiglien-3-one, reference compound]: the Minimum inhibitory concentrations entry was “C” in assay [1]; “C” in assay [2]; “C” in [3]; “C” in [4]; 8 µg/mL (≈ 12.7 µM) in assay [5]; 8 µg/mL (≈ 12.7 µM) in assay [6]. In addition, the “biofilm bio-volume (COMSTAT)” value is reported as “no apparent effect” in assay [7] and “significant reductions” in [9]. Also, in assay [7], the “distribution and density of bacteria” value is recorded as “no apparent effect”. The DEAD/LIVE bacterial ratio entry in assay [9] and in [10] was “no significant differences” each time.

`CCC(=O)OC1C(C)C2(O)C(C3OC3(CO)C(O)C3(O)C(=O)C(C)=CC32)C2C(C)(C)C12OC(=O)C(C)CC` (centres unmarked) [Compound 6, 12-propanoyl-13-(2-methylbutanoyl)-6,7-epoxy-4,5,9,12,13,20-hexahydroxy-1-tiglien-3-one]: the Minimum inhibitory concentrations result in assay [1], in [2], in [3], in assay [4], in assay [5] and in [6] was “C” each time. Also, the “biofilm bio-volume (COMSTAT)” value in assay [7] is “Decreases in bio-volume were evident”. The “distribution and density of bacteria” value in assay [7] is reported as “significant changes”. In addition, the “Diffusion coefficient (Deff) ± standard deviation” value in assay [8] was found to be 0.1607 ± 0.0104 cm^2 · s^−1 × 10^−9. Further, the “mean squared displacement (MSD) of FluoSphere particles” value in assay [8] was “substantially higher”. Further, the biofilm creep compliance entry in [8] was “increased”. Besides, the DEAD/LIVE bacterial ratio result in [9] and in assay [10] was “no significant differences” in each case.

The values above are taken from patent publication US12514843B2, “Biofilm disruption” (QBIOTICS PTY LTD, priority 2019, dated 2026).
